Assay results taken from patent US20220195066A1, “ANTI-CEA IMMUNOCONJUGATES, AND USES THEREOF” (BOLT BIOTHERAPEUTICS, INC., priority 2020, published 2022).

Experiments:
human TLR7 = biological target: T1, human TLR7 (Homo sapiens, UniProt Q9NYK1); experiment: HEK Reporter Assay, HEK293 NFKB reporter cells expressing human TLR7; assay type: cell-based; conditions: read-out: HEK293 hTLR7 EC50
T1 construct: host or cells: HEK293 NF-kB reporter cells
T1 sequence (Q9NYK1 27-1049): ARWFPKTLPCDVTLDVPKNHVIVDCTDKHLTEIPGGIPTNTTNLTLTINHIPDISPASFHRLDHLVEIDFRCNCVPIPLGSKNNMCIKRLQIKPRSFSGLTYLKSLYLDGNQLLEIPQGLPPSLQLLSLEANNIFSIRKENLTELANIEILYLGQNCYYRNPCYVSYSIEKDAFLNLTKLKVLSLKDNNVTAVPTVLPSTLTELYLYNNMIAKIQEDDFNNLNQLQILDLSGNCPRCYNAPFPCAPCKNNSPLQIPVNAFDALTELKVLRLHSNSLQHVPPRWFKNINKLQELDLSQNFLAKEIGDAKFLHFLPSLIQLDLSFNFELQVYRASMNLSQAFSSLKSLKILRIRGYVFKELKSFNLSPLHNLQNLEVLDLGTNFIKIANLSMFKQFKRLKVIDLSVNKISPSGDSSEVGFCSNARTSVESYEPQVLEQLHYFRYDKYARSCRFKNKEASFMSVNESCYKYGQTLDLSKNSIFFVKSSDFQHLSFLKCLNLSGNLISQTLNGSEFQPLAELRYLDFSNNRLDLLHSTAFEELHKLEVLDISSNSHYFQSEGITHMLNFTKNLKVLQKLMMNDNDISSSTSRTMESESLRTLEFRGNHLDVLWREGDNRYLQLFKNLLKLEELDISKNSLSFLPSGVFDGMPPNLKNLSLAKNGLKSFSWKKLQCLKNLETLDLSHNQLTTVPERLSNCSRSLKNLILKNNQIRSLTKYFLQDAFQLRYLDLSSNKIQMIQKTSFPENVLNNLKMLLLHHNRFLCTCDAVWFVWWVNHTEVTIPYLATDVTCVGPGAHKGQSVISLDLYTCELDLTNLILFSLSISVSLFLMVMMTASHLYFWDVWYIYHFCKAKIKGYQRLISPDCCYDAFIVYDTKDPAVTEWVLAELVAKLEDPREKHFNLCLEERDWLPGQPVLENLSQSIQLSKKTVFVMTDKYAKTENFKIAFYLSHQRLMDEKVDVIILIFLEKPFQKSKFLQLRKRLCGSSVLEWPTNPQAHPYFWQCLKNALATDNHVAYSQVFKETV
Experimental: (§1) Each compound was synthesized, purified, and characterized by mass spectrometry and shown to have the mass indicated. Additional experimental procedures are found in the Examples. Activity against Human Embryonic Kidney (HEK) 293 NFKB reporter cells expressing human TLR7 or human TLR8 was measured according to Example 202.
(§2) Human Embryonic Kidney (HEK293) reporter cells expressing human TLR7 or human TLR8 (InvivoGen, San Diego Calif.), were used with vendor protocols for cellular propagation and experimentation. Briefly, cells were grown to 80-85% confluence at 5% CO2 in DMEM supplemented with 10% FBS, ZEOCIN™, and Blasticidin. Cells were then seeded in 96-well flat plates at 4×10^4 cells/well with substrate containing HEK detection medium and immunostimulatory molecules.

human TLR8 = biological target: T2, human TLR8 (Homo sapiens, UniProt Q9NR97); experiment: HEK Reporter Assay, HEK293 NFKB reporter cells expressing human TLR8; assay type: cell-based; conditions: read-out: HEK293 hTLR8 EC50
T2 construct: host or cells: HEK293 NF-kB reporter cells
T2 sequence (Q9NR97 27-1041): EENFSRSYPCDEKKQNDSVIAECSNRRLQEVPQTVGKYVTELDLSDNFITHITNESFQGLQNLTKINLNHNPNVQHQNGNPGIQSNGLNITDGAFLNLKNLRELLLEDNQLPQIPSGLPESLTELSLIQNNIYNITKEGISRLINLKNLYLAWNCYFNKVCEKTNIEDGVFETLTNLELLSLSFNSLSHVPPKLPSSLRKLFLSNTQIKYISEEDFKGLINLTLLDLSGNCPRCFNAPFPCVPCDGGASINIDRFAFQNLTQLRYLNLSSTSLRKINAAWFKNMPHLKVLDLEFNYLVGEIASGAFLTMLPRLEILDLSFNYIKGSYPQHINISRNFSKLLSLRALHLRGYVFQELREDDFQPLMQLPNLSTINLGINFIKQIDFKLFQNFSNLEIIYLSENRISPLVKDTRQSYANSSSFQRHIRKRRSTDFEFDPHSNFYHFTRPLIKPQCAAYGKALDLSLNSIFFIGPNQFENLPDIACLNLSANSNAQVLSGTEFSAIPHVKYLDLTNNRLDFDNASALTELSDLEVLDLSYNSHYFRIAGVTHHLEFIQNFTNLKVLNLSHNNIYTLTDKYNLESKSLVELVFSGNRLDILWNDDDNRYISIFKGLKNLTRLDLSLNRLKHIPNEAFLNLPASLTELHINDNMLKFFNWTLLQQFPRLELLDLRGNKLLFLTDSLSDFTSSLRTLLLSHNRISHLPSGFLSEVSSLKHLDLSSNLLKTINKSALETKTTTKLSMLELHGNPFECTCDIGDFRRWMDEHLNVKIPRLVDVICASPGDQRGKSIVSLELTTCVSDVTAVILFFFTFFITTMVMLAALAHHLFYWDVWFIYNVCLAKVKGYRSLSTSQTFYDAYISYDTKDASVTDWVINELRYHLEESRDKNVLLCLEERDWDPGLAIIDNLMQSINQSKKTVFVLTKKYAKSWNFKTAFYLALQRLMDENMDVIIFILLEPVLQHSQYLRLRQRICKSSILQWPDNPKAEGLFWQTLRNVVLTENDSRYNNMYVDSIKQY
Experimental: as §1, §2

SMILES	EC50 (human TLR7)	EC50 (human TLR8)
CCCN(OCC)C(=O)C1=Cc2ccc(-c3cnc(N4CCN(C(=O)OC(C)(C)C)CC4)nc3)cc2N=C(N)C1 [HxBz-4, tert-butyl 4-[5-[2-amino-4-[ethoxy (propyl)carbamoyl]-3H-1-benzazepin-8-yl]pyrimidin-2-yl]piperazine-1-carboxylate]	3260 nM	350 nM
CCCN(OCC)C(=O)C1=Cc2ccc(-c3cnc(C(=O)N4CCC[C@H]4C(=O)OC)nc3)cc2N=C(N)C1 [HxBz-12]	159 nM	6 nM
CCCN(CCCNC(=O)OC1CCC1)C(=O)C1=Cc2ccc(-c3cnc(CN)nc3)cc2N=C(N)C1 [HxBz-13, cyclobutyl N-[3-[[2-amino-8-[2-(aminomethyl)pyrimidin-5-yl]-3H-1-benzazepine-4-carbonyl]-propyl-amino]propyl]carbamate]	242 nM	274 nM
CCCN(OCCNC(=O)OC1CCC1)C(=O)C1=Cc2ccc(-c3cnc(CN)nc3)cc2N=C(N)C1 [HxBz-15, cyclobutyl N-[2-[[2-amino-8-[2-(aminomethyl)pyrimidin-5-yl]-3H-1-benzazepine-4-carbonyl]-propyl-amino]oxyethyl]carbamate]	35 nM	10 nM
CCCN(OCCNC(=O)NC1CCC1)C(=O)C1=Cc2ccc(-c3cnc(CN)nc3)cc2N=C(N)C1 [HxBz-16, 2-amino-8-[2-(aminomethyl)pyrimidin-5-yl]-N-[2-(cyclobutylcarbamoylamino)ethoxy]-N-propyl-3H-1-benzazepine-4-carboxamide]	4600 nM	399 nM
CCCN(OCC)C(=O)C1=Cc2ccc(N3CCNCC3)cc2N=C(N)C1 [HxBz-18]	6310 nM	281 nM
CCCN(OCCNC(=O)N(C)C)C(=O)C1=Cc2ccc(-c3cnc(CN)nc3)cc2N=C(N)C1 [HxBz-20]	2940 nM	3690 nM
CCCN(OCCNC(=O)N1CCOCC1)C(=O)C1=Cc2ccc(-c3cnc(CN)nc3)cc2N=C(N)C1 [HxBz-23]	6880 nM	6180 nM
CCCN(CC1CNC(=O)O1)C(=O)C1=Cc2ccc(-c3cnc(CN)nc3)cc2N=C(N)C1 (centres unmarked) [HxBz-25]	–	3160 nM
CCCN(OCCNC(=O)OC(C)C)C(=O)C1=Cc2ccc(-c3cnc(CN)nc3)cc2N=C(N)C1 [HxBz-27, isopropyl N-[2-[[2-amino-8-[2-(aminomethyl)pyrimidin-5-yl]-3H-1-benzazepine-4-carbonyl]-propyl-amino]oxyethyl]carbamate]	26 nM	9 nM
CCCN(OCCNC(=O)NCC)C(=O)C1=Cc2ccc(-c3cnc(CN)nc3)cc2N=C(N)C1 [HxBz-28]	3770 nM	2930 nM
CCCN(CCCNC(=O)OC(C)C)C(=O)C1=Cc2ccc(-c3cnc(CN)nc3)cc2N=C(N)C1 [HxBz-29]	134 nM	296 nM
CCCN(CCCNC(=O)OC1CCC1)C(=O)C1=Cc2ccc(-c3cncc(S(=O)(=O)N4CC(CN)C4)c3)cc2N=C(N)C1 [HxBz-32, cyclobutyl N-[3-[[2-amino-8-[5-[3-(aminomethyl)azetidin-1-yl]sulfonyl-3-pyridyl]-3H-1-benzazepine-4-carbonyl]-propyl-amino]propyl]carbamate]	1280 nM	1520 nM
CCCN(CCCNC(=O)OC(C)C)C(=O)C1=Cc2ccc(-c3cncc(S(=O)(=O)N4CC(CN)C4)c3)cc2N=C(N)C1 [HxBz-33]	7630 nM	2880 nM
CCCN(OCCNC(=O)OC1CCC1)C(=O)C1=Cc2ccc(-c3cncc(S(=O)(=O)N4CC(CN)C4)c3)cc2N=C(N)C1 [HxBz-34]	322 nM	79 nM
CCCN(OCCO)C(=O)C1=Cc2ccc(-c3cncc(S(=O)(=O)N4CC(CN)C4)c3)cc2N=C(N)C1 [HxBz-43]	–	6160 nM
CCCN(C(=O)C1=Cc2ccc(-c3cnc(CN)nc3)cc2N=C(N)C1)[C@H]1C[C@H](NC(=O)OC2CCC2)C1 [HxBz-44]	–	6350 nM
CCCN(OCC1COC(=O)N1)C(=O)C1=Cc2ccc(-c3cnc(CN)nc3)cc2N=C(N)C1 (centres unmarked) [HxBz-46]	–	3580 nM

Next, values leading:

EC50 (human TLR7)	EC50 (human TLR8)	SMILES
2540 nM	163 nM	CCCN(OCC)C(=O)C1=Cc2ccc(-c3cnc(C#N)nc3)cc2N=C(N)C1 [HxBz-1]
2240 nM	276 nM	CCCN(OCC)C(=O)C1=Cc2ccc(-c3cccnn3)cc2N=C(N)C1 [HxBz-2]
562 nM	43 nM	CCCN(OCC)C(=O)C1=Cc2ccc(-c3cnc(N4CCNCC4)nc3)cc2N=C(N)C1 [HxBz-3, 2-amino-N-ethoxy-8-(2-piperazin-1-ylpyrimidin-5-yl)-N-propyl-3H-1-benzazepine-4-carboxamide]
525 nM	17 nM	CCCN(OCC)C(=O)C1=Cc2ccc(-c3cnc(CN)nc3)cc2N=C(N)C1 [HxBz-5, 2-amino-8-[2-(aminomethyl)pyrimidin-5-yl]-N-ethoxy-N-propyl-3H-1-benzazepine-4-carboxamide]
2660 nM	339 nM	CCCN(OCC)C(=O)C1=Cc2ccc(-c3ccc(C(=O)OC)nn3)cc2N=C(N)C1 [HxBz-6]
3630 nM	335 nM	CCCN(OCC)C(=O)C1=Cc2ccc(-c3cncc(S(=O)(=O)N4CC(CN)C4)c3)cc2N=C(N)C1 [HxBz-7, 2-amino-8-[5-[3-(aminomethyl)azetidin-1-yl]sulfonyl-3-pyridyl]-N-ethoxy-N-propyl-3H-1-benzazepine-4-carboxamide]
8630 nM	397 nM	CCCN(OCC)C(=O)C1=Cc2ccc(-c3cnn(S(=O)(=O)N4CC(CN)C4)c3)cc2N=C(N)C1 [HxBz-9]
–	814 nM	CCCN(OCC)C(=O)C1=Cc2ccc(-c3ncc(CN)cn3)cc2N=C(N)C1 [HxBz-10]
4070 nM	161 nM	CCCN(OCC)C(=O)C1=Cc2ccc(-c3cnc(C(=O)OC)nc3)cc2N=C(N)C1 [HxBz-11, methyl 5-(2-amino-4-(ethoxy(propyl)carbamoyl)-3H-benzo[b]azepin-8-yl)pyrimidine-2-carboxylate]
3920 nM	1150 nM	CCCN(OCCO)C(=O)C1=Cc2ccc(-c3cnc(CN)nc3)cc2N=C(N)C1 [HxBz-22, 2-amino-8-[2-(aminomethyl)pyrimidin-5-yl]-N-(2-hydroxyethoxy)-N-propyl-3H-1-benzazepine-4-carboxamide]
393 nM	40 nM	CCCN(OC(C)C)C(=O)C1=Cc2ccc(-c3cnc(CN)nc3)cc2N=C(N)C1 [HxBz-30]
763 nM	358 nM	CCCN(OCC(C)C)C(=O)C1=Cc2ccc(-c3cnc(CN)nc3)cc2N=C(N)C1 [HxBz-31]
–	2160 nM	CCCN(OCC)C(=O)C1=Cc2ccc(-c3cnnc(CN)c3)cc2N=C(N)C1 [HxBz-48]
